Test results published in patent publication US20030073132A1, “Method for the screening of alpha2delta-1 subunit binding ligands” (priority 1999, published 2003).
Values joined by “and” are separate entries in the source; they are usually repeats but may differ in a detail not shown here. Equal values may be shown once. Read-outs that look alike come from different tables or passages of the source.

What was measured:
[1] = biological target: porcine α2δ-1b-6His (SEQ ID No 9) (Sus scrofa, UniProt A0A287BIN3); details: [3H]gabapentin 10-13 nM
Description: Assays were carried out at 21° C. in a final volume of 250 μl in 96-well NEN Ni chelate flash plates. Wells were set up for both ‘total’ and ‘non-specific’ binding. Specific binding was defined as that remaining after subtraction of the average of the ‘non-specific binding’ values from the average of the ‘total’ binding values. Assay components were added in the following order (all reagents were diluted in 10 mM HEPES (pH 7.4 at 21° C.)):
Immediately after adding radioligand, flash plates were loaded in the Packard Top Count scintillation counter to follow the binding time course. Incubation time before the assay was 3 hours. The ‘[^3H] flash plate’ programme (cpm) was used to monitor activity. Specific binding was ˜98% of the ‘total’ value. Imidazole was used in the assay to optimize the specific interaction of the protein's 6His tag with the Ni flashplate.
GraphPad Prism software was used to process competition curve data and determine IC50 and hill slope values. Twelve point competition curves with half log dilution steps of test compounds were used in the experiments.

[2] = biological target: [^3H]gabapentin site in porcine cortical membranes (Sus scrofa, UniProt O77773); details: saturation binding analyses on porcine synaptic plasma cerebral cortex membranes in the presence of L-leucine; cited from earlier work
[3] = read-out: Ki, Flash plate (3 μl protein used, n = 2), single experiments, Ki = IC50/(1 + [L]/KD), 3 h incubation
[4] = read-out: Ki, Flash plate, Mean (geometric), geometric mean of n = 2

Sequence of porcine α2δ-1b-6His (SEQ ID No 9) (A0A287BIN3 25-1109 limits assumed): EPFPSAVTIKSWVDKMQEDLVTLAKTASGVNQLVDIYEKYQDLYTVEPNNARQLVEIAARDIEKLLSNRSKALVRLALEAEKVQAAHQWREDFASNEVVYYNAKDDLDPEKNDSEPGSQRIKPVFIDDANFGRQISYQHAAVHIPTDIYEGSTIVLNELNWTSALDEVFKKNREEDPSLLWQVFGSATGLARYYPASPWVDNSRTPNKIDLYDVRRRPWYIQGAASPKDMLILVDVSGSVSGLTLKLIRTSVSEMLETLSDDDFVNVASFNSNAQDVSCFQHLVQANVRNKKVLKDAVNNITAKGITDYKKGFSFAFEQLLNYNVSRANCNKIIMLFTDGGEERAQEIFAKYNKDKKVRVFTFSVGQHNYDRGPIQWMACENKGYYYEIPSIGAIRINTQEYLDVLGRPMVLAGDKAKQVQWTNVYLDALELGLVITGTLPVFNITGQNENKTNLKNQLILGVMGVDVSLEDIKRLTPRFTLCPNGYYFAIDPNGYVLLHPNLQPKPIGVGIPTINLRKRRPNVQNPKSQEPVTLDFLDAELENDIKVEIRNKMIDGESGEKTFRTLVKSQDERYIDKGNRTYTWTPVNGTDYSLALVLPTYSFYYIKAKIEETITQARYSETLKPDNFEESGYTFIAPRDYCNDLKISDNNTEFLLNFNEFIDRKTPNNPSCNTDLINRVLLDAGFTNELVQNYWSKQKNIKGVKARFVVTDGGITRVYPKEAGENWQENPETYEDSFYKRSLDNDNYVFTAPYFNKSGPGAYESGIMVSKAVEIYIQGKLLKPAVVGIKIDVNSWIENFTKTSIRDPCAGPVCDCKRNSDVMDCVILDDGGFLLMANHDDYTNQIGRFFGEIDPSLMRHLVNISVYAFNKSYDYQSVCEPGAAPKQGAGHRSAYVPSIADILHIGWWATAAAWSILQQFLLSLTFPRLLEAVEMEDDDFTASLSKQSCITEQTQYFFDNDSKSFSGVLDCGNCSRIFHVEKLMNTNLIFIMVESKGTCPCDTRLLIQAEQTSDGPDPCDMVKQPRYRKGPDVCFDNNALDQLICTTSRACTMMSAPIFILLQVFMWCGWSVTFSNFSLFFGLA
Sequence of [^3H]gabapentin site in porcine cortical membranes (O77773 25-1091): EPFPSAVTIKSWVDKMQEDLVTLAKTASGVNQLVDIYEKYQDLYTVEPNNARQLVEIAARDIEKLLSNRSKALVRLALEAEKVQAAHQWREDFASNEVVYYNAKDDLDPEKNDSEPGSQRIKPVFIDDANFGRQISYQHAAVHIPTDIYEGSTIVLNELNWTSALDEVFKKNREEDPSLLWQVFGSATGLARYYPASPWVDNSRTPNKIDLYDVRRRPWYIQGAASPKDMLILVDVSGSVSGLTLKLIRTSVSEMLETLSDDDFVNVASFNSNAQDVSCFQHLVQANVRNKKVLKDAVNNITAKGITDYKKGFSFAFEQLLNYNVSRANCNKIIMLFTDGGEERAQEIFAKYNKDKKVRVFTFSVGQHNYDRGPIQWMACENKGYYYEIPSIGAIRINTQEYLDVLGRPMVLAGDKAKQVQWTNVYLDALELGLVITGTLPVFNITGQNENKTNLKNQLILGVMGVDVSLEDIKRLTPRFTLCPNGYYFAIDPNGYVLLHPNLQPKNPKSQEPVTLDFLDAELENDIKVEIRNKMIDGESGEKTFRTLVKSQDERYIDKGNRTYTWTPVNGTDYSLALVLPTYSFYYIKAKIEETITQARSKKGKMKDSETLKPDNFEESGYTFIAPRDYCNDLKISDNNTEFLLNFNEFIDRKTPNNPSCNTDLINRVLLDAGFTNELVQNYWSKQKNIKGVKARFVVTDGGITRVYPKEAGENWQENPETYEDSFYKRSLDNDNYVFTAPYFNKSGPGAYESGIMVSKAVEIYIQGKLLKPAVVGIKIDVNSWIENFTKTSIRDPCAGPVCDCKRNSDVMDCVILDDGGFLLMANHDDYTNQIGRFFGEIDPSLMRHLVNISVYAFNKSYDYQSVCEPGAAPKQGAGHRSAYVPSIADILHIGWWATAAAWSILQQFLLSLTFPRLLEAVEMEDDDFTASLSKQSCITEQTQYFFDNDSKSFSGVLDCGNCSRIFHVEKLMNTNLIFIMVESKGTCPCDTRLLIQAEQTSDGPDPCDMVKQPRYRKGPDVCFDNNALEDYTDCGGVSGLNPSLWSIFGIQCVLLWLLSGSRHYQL

SMILES | Ki [1, 3] | Ki [1, 4] [nM] | interaction with the [3H]gabapentin binding site [2]
CC(C)C[C@@H](CN)CC(=O)O [(R-)-3-isobtyl GABA, (R−)-3-Isobutyl GABA] | 157 nM and 207 nM | 180 | –
CC(C)C[C@H](N)C(=O)O [L-Leucine] | – | – | competitive interaction
CC(C)C[C@H](CN)CC(=O)O [(S+)-3-isobutyl GABA] | 10.9 nM and 7.58 nM | 9.09 | –
